Common to all, as to assay type: cell-based
The subject of assay [1] is Chikungunya virus (CHIKV). Description: microbe, parasite or virus in culture. Particulars: Chikungunya virus, Vero, 48 h, read-out: Percent viral inhibition CHKV.
In another assay the test system is dengue virus (DENV). Description: microbe, parasite or virus in culture. As to conditions: Dengue virus, Vero, 120 h, read-out: Percent viral inhibition DENY.
The subject of a further assay is Marburg virus (MARV). Nature of the assay: organism not typed. Particulars: Vero, 72 h, read-out: Percent viral inhibition MARV.

What is called inhibition is the percentage by which the read-out fell short of the control. Take `CNC(=O)NCC1CCN(Cc2cc(Oc3cnc(N4CCN(CCCS(C)(=O)=O)CC4)nc3)nc(-c3cc(Cl)cc(Cl)c3)c2)CC1` [Example 257, 1-((1-((2-(3,5-dichlorophenyl)-6-((2-(4-(3-(methylsulfonyl)propyl)piperazin-1-yl)pyrimidin-5-yl)oxy)pyridin-4-yl)methyl)piperidin-4-yl)methyl)-3-methylurea]: the inhibition at 1 µM in assay [1] was 10.3%; with dengue virus (DENV), 46.5%; with Marburg virus (MARV), 26.5%.

In the case of `CC(=O)NCC1CCN(Cc2cc(Oc3cnc(N4CCN(CCCS(C)(=O)=O)CC4)nc3)nc(-c3cc(Cl)cc(Cl)c3)c2)CC1` [Example 259, N-((1-((2-(3,5-dichlorophenyl)-6-((2-(4-(3-(methylsulfonyl)propyl)piperazin-1-yl)pyrimidin-5-yl)oxy)pyridin-4-yl)methyl)piperidin-4-yl)methyl)acetamide], the inhibition at 1 µM is 15% in assay [1], 47% in the assay on dengue virus (DENV) and 67.2% in the assay with Marburg virus (MARV).

In the case of `CNC(=O)NCC1CCN(Cc2cc(Oc3cnc(N4CCN(CCC(N)=O)CC4)nc3)nc(-c3cc(Cl)cc(Cl)c3)c2)CC1` [Example 261, 3-(4-(5-((6-(3,5-dichlorophenyl)-4-((4-((3-methylureido)methyl)piperidin-1-yl)methyl)pyridin-2-yl)oxy)pyrimidin-2-yl)piperazin-1-yl) propanamide], the inhibition at 1 µM in assay [1] is 0.69%; with dengue virus (DENV), 53.6%; with Marburg virus (MARV), 56.8%.

As to `CNC(=O)NCC1CCN(Cc2cc(Oc3cnc(N4CCN(CCOC)CC4)nc3)nc(-c3cc(Cl)cc(Cl)c3)c2)CC1` [Example 262, 1-((1-((2-(3,5-dichlorophenyl)-6-((2-(4-(2-methoxyethyl)piperazin-1-yl)pyrimidin-5-yl)oxy)pyridin-4-yl)methyl)piperidin-4-yl)methyl)-3-methylurea], the inhibition at 1 µM turned out to be 19% in assay [1], 10.3% in the assay with dengue virus (DENV) and 39.3% with Marburg virus (MARV).

`CC(=O)NCC1CCN(Cc2cc(Oc3cnc(N4CCN(CCC(=O)O)CC4)nc3)nc(-c3cc(Cl)cc(Cl)c3)c2)CC1` [Example 263, 3-(4-(5-((4-((4-(acetamidomethyl)piperidin-1-yl)methyl)-6-(3,5-dichlorophenyl)pyridin-2-yl)oxy)pyrimidin-2-yl)piperazin-1-yl)propanoic acid]: the inhibition at 1 µM in assay [1] is 28.9%; with dengue virus (DENV), 39.7%; in the assay on Marburg virus (MARV), 48.5%.

Turning to `CC(=O)NCC1CCN(Cc2cc(Oc3cnc(N4CCN(CCC(=O)O)CC4)c(F)c3)nc(-c3cc(Cl)cc(Cl)c3)c2)CC1` [Example 266], the inhibition at 1 µM in assay [1] was determined as 22.6%; in the assay with dengue virus (DENV) it was 48.7%; in the assay with Marburg virus (MARV), 56.3%.

As to `CCOC(=O)NCC1CCN(Cc2cc(Oc3cnc(N4CCN(CCC(=O)O)CC4)nc3)nc(-c3cc(Cl)cc(Cl)c3)c2)CC1` [Example 267, 3-(4-(5-((6-(3,5-dichlorophenyl)-4-((4-(((ethoxycarbonyl)amino)methyl)piperidin-1-yl)methyl)pyridin-2-yl)oxy)pyrimidin-2-yl)piperazin-1-yl) propanoic acid], the inhibition at 1 µM is 34.6% in assay [1], 37% in the assay with dengue virus (DENV) and 65% in the assay with Marburg virus (MARV).

On to `CC(CC1CCN(Cc2cc(Oc3cnc(N4CCNCC4)nc3)nc(-c3cc(Cl)cc(Cl)c3)c2)CC1)C(=O)O` (stereo not drawn) [Example 269, 3-(1-((2-(3,5-dichlorophenyl)-6-((2-(piperazin-1-yl)pyrimidin-5-yl)oxy)pyridin-4-yl)methyl)piperidin-4-yl)-2-methylpropanoic acid], for which the inhibition at 1 µM came to 24.5% in assay [1], 39.5% with dengue virus (DENV) and 35% in the assay with Marburg virus (MARV).

Take `CNC(=O)NCC1CCN(Cc2cc(Oc3cnc(N4CCN(CCC(=O)O)CC4)c(F)c3)nc(-c3cc(Cl)cc(Cl)c3)c2)CC1` [Example 270, 3-(4-(5-((6-(3,5-dichlorophenyl)-4-((4-((3-methylureido)methyl)piperidin-1-yl)methyl)pyridin-2-yl)oxy)-3-fluoropyridin-2-yl)piperazin-1-yl)propanoic acid]: the figures for the inhibition at 1 µM (in assay [1]; with dengue virus (DENV); in the assay on Marburg virus (MARV)) were 30.7%, 61.6% and 53.6%, respectively.

For `CS(=O)(=O)CCCN1CCN(c2ccc(Oc3cc(CN4CCC(CCC(=O)O)CC4)cc(-c4cc(Cl)cc(Cl)c4)n3)cn2)CC1` [Example 271, 3-(1-((2-(3,5-dichlorophenyl)-6-((6-(4-(3-(methylsulfonyl)propyl)piperazin-1-yl)pyridin-3-yl)oxy)pyridin-4-yl)methyl)piperidin-4-yl)propanoic acid], the inhibition at 1 µM in assay [1] is 22.5%; in the assay with dengue virus (DENV) it was 0%; in the assay with Marburg virus (MARV), 59.7%.

Regarding `CS(=O)(=O)CCCN1CCN(c2ncc(Oc3cc(CN4CCC(CCC(=O)O)CC4)cc(-c4cc(Cl)cc(Cl)c4)n3)cn2)CC1` [Example 272, 3-(1-((2-(3,5-dichlorophenyl)-6-((2-(4-(3-(methylsulfonyl)propyl)piperazin-1-yl)pyrimidin-5-yl)oxy)pyridin-4-yl)methyl)piperidin-4-yl)propanoic acid], the inhibition at 1 µM worked out at 30.3% in assay [1], 42.4% with dengue virus (DENV) and 45.5% in the assay with Marburg virus (MARV).

Take `CC(=O)NCC1CCN(Cc2cc(Oc3cnc(N4CCN(CCC(N)=O)CC4)nc3)nc(-c3cc(F)c(F)c(Cl)c3)c2)CC1` [Example 273]: the inhibition at 1 µM was 23.4% in assay [1], 25.4% in the assay with dengue virus (DENV) and 58.5% in the assay on Marburg virus (MARV).

For the compound `CNC(=O)NCC1CCN(Cc2cc(Oc3cnc(N4CCN(CCCS(C)(=O)=O)CC4)nc3)nc(-c3cc(F)cc(Cl)c3)c2)CC1` [Example 274, 1-((1-((2-(3-chloro-5-fluorophenyl)-6-((2-(4-(3-(methylsulfonyl)propyl)piperazin-1-yl)pyrimidin-5-yl)oxy)pyridin-4-yl)methyl)piperidin-4-yl)methyl)-3-methylurea], the inhibition at 1 µM in assay [1] amounted to 44.4%; with dengue virus (DENV), 56.1%; in the assay with Marburg virus (MARV), 49%.

As to `COC(=O)NCC1CCN(Cc2cc(Oc3cnc(N4CCNCC4)nc3)nc(-c3cc(F)cc(Cl)c3)c2)CC1` [Example 275, methyl((1-((2-(3-chloro-5-fluorophenyl)-6-((2-(piperazin-1-yl)pyrimidin-5-yl)oxy)pyridin-4-yl)methyl)piperidin-4-yl)methyl)carbamate], the inhibition at 1 µM (in assay [1]; in the assay with dengue virus (DENV); with Marburg virus (MARV)) was 0% in each case.

`CS(=O)(=O)CCC1CCN(Cc2cc(Oc3ccc(N4CCN(CCC(=O)O)CC4)nc3)nc(-c3cc(Cl)cc(Cl)c3)c2)CC1` [Example 276, 3-(4-(5-((6-(3,5-dichlorophenyl)-4-((4-(2-(methylsulfonyl)ethyl)piperidin-1-yl)methyl)pyridin-2-yl)oxy)pyridin-2-yl)piperazin-1-yl)propanoic acid]: the inhibition at 1 µM in assay [1] came to 31.8%; in the assay on dengue virus (DENV), 27.3%; in the assay with Marburg virus (MARV), 51.8%.

`NS(=O)(=O)CCC1CCN(Cc2cc(Oc3ccc(N4CCN(CCC(=O)O)CC4)nc3)nc(-c3cc(Cl)cc(Cl)c3)c2)CC1` [Example 277, 3-(4-(5-((6-(3,5-dichlorophenyl)-4-((4-(2-sulfamoylethyl)piperidin-1-yl)methyl)pyridin-2-yl)oxy)pyridin-2-yl)piperazin-1-yl)propanoic acid]: the inhibition at 1 µM in assay [1] turned out to be 11.7%; in the assay on dengue virus (DENV), 21.7%; in the assay with Marburg virus (MARV), 61.8%.

Values taken from patent US20230011571A1, “SMALL MOLECULE FURIN INHIBITORS FOR TREATING INFECTIOUS DISEASES” (BP Asset V, Inc., priority 2019, published 2023).
